The values below come from patent US9765087B2, “Benzimidazole derivatives” (ENANTA PHARMACEUTICALS, INC., priority 2009, dated 2017).

The structures appear in SMILES notation. Read-outs that look alike come from different tables or passages of the source.

The test system of one test is HCV 1b genotype replicon. As to the kind of experiment: HCV replicon assay (qRT-PCR or luciferase), genotype 1b. In kind it is cell-based. The note with it: Hepatitis C virus. The essentials: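 EC50 derived either from luciferase signal in Huh-luc/neo-ET replicon cells after 72 h compound exposure (0.2% DMSO, 37 °C) or from TaqMan qRT-PCR of replicon RNA normalized to GAPDH. MTS assay assessed cytotoxicity; combinations tested in 6-point two-fold checkerboards around each EC50.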

A further test relates to HCV 1a genotype replicon. As to the kind of experiment: HCV replicon assay (qRT-PCR or luciferase), genotype 1a. In kind it is cell-based. The note with it: Hepatitis C virus. The essentials: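 Bartenschlager HCV replicon Huh cells; EC50 from HCV RNA by TaqMan qRT-PCR normalised to GAPDH, cytotoxicity by MTS. Combination studies in Huh-luc/neo-ET cells seeded at 7,000/well, compounds in 6-point two-fold dilutions, 0.2% DMSO final, 72 h at 37 °C, luciferase read-out.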

The mark [1] stands for this setting: Table 12, numeric values, read-out: 1b EC50.
Setting [2] is: Table 12, numeric values, read-out: 1a EC50.
Setting [3] is: Table 12, range class, read-out: 1a EC50 Range.
Setting [4] is: Table 12, range class, read-out: 1b EC50 Range.

For `COC(=O)N[C@H](C(=O)N1CCC[C@H]1c1nc(-c2ccc3nc(-c4ccc5[nH]c([C@@H]6CC7(CC7)CN6C(=O)[C@@H](NC(=O)OC)C(C)C)nc5c4)ccc3c2)c[nH]1)C(C)C` [Example 574], the half-maximal effective concentration (EC50) with HCV 1b genotype replicon (setting [1]) was determined as 0.036 nM; in the test with HCV 1a genotype replicon (setting [2]) it was 0.127 nM.

In the case of `COC(=O)N[C@H](C(=O)N1C[C@H](F)C[C@H]1c1nc(-c2ccc(C#Cc3ccc4[nH]c([C@@H]5C[C@@]6(CCCO6)CN5C(=O)[C@@H](NC(=O)OC)C(C)C)nc4c3)cc2)c[nH]1)C(C)C` [Example 629], the results for the 50% effective concentration (EC50) with HCV 1b genotype replicon (setting [1]) and in the test on HCV 1a genotype replicon (setting [2]) were 0.017 nM and 0.18 nM, respectively.

Regarding `COC(=O)N[C@H](C(=O)N1CC2(CC2)C[C@H]1c1ncc(-c2ccc(C#Cc3ccc4nc([C@@H]5C[C@@]6(CCCOC6)CN5C(=O)[C@@H](NC(=O)OC)C(C)C)[nH]c4c3)cc2)[nH]1)C(C)C` [Example 638], the half-maximal effective concentration (EC50) is 0.007 nM in the test with HCV 1b genotype replicon (setting [1]) and < 1 nM in the test on HCV 1a genotype replicon (setting [3]).

Take `COC(=O)N[C@H](C(=O)N1C[C@@]2(C[C@H]1c1nc(-c3ccc(C#Cc4ccc5[nH]c([C@@H]6CC7(CC7)CN6C(=O)[C@@H](NC(=O)OC)C(C)C)nc5c4)cc3)c[nH]1)CC2(F)F)C(C)C` [Example 687]: the EC50 is 0.01 nM in the test with HCV 1b genotype replicon (setting [1]) and < 1 nM with HCV 1a genotype replicon (setting [3]).

On to `COC(=O)N[C@H](C(=O)N1CC2(CC2)C[C@H]1c1nc2ccc(C#Cc3ccc(-c4cnc([C@@H]5C[C@H]6C[C@H]6N5C(=O)[C@@H](NC(=O)OC)C(C)C)[nH]4)cc3)cc2[nH]1)C(C)C` [Example 637], for which the EC50 is 0.004 nM in the test with HCV 1b genotype replicon (setting [1]) and < 1 nM with HCV 1a genotype replicon (setting [3]).

Regarding `COC(=O)N[C@H](C(=O)N1C[C@@H](OC)C[C@H]1c1nc(-c2ccc(C#Cc3ccc4[nH]c([C@@H]5C[C@@]6(CCCO6)CN5C(=O)[C@@H](NC(=O)OC)C(C)C)nc4c3)cc2)c[nH]1)C(C)C` [Example 558], the half-maximal effective concentration (EC50) with HCV 1b genotype replicon (setting [4]) and with HCV 1a genotype replicon (setting [3]) was < 1 nM throughout.

As to `COC(=O)N[C@H](C(=O)N1C[C@]2(CCCO2)C[C@H]1c1ncc(-c2ccc(C#Cc3ccc4nc([C@@H]5C[C@@]6(CCCO6)CN5C(=O)[C@@H](NC(=O)OC)C(C)C)[nH]c4c3)cc2)[nH]1)C(C)C` [Example 625], the EC50 in the test with HCV 1b genotype replicon (setting [4]) and in the test on HCV 1a genotype replicon (setting [3]) was < 1 nM throughout.

Take `COC(=O)N[C@H](C(=O)N1CC(F)(F)C[C@H]1c1nc(-c2ccc(C#Cc3ccc4[nH]c([C@@H]5C[C@@]6(CCCO6)CN5C(=O)[C@@H](NC(=O)OC)C(C)C)nc4c3)cc2)c[nH]1)C(C)C` [Example 627]: the EC50 is 0.01 nM in the test on HCV 1b genotype replicon (setting [1]) and < 1 nM with HCV 1a genotype replicon (setting [3]).

Consider `COC(=O)N[C@H](C(=O)N1C[C@]2(C[C@H]1c1ncc(-c3ccc(C#Cc4ccc5nc([C@@H]6CC7(CC7)CN6C(=O)[C@@H](NC(=O)OC)C(C)C)[nH]c5c4)cc3)[nH]1)CC2(F)F)C(C)C` [Example 614], for which the EC50 was 0.004 nM in the test with HCV 1b genotype replicon (setting [1]) and < 1 nM with HCV 1a genotype replicon (setting [3]).

With `COC(=O)N[C@H](C(=O)N1CCC[C@H]1c1ncc(-c2ccc3nc(-c4ccc5nc([C@@H]6CC7(CC7)CN6C(=O)[C@@H](NC(=O)OC)C(C)C)[nH]c5c4)cnc3c2)[nH]1)C(C)C` [Example 643], the values for the EC50 in the test with HCV 1b genotype replicon (setting [1]) and in the test on HCV 1a genotype replicon (setting [3]) were 0.054 nM and < 1 nM, respectively.

Regarding `COC(=O)N[C@H](C(=O)N1C[C@]2(CCCO2)C[C@H]1c1nc(-c2ccc(C#Cc3ccc4[nH]c([C@@H]5CC6(CC6)CN5C(=O)[C@@H](NC(=O)OC)C(C)C)nc4c3)cc2)c[nH]1)C(C)C` [Example 546], the EC50 in the test on HCV 1b genotype replicon (setting [1]) is 0.012 nM; in the test with HCV 1a genotype replicon (setting [3]) it was < 1 nM.

As for `COC(=O)N[C@H](C(=O)N1CC2(CC2)C[C@H]1c1ncc(-c2ccc(C#Cc3ccc4nc([C@@H]5C[C@@H](C6CC6)CN5C(=O)[C@@H](NC(=O)OC)C(C)C)[nH]c4c3)cc2)[nH]1)C(C)C` [Example 612], the EC50 in the test with HCV 1b genotype replicon (setting [4]) and in the test on HCV 1a genotype replicon (setting [3]) was < 1 nM in each case.

With `COC(=O)N[C@H](C(=O)N1C[C@](C)(F)C[C@H]1c1nc(-c2ccc(C#Cc3ccc4[nH]c([C@@H]5C[C@@]6(CCCO6)CN5C(=O)[C@@H](NC(=O)OC)C(C)C)nc4c3)cc2)c[nH]1)C(C)C` [Example 567], the EC50 in the test with HCV 1b genotype replicon (setting [1]) was 0.015 nM; in the test on HCV 1a genotype replicon (setting [3]) it was < 1 nM.

Consider `COC(=O)N[C@H](C(=O)N1CC2(CC2)C[C@H]1c1nc(-c2ccc(C#Cc3ccc4[nH]c([C@@H]5C[C@@]6(CCCO6)CN5C(=O)[C@@H](NC(=O)OC)C(C)C)nc4c3)cc2)c[nH]1)C(C)C` [Example 555], for which the EC50 in the test on HCV 1b genotype replicon (setting [1]) is 0.007 nM; in the test on HCV 1a genotype replicon (setting [3]), < 1 nM.

Regarding `COC(=O)N[C@H](C(=O)N1CC2(CC2)C[C@H]1c1nc(-c2ccc(-c3ccc4[nH]c([C@@H]5CC6(CC6)CN5C(=O)[C@@H](NC(=O)OC)C(C)C)nc4c3)cc2)c[nH]1)C(C)C` [Example 640], the EC50 with HCV 1b genotype replicon (setting [1]) is 0.03 nM; with HCV 1a genotype replicon (setting [3]) it was 1 to 10 nM.

Turning to `COC(=O)N[C@H](C(=O)N1CC2(CC2)C[C@H]1c1nc2ccc(C#Cc3ccc(-c4cnc([C@@H]5CC6(CC6)CN5C(=O)[C@@H](NC(=O)OC)[C@@H](C)OCCF)[nH]4)cc3)cc2[nH]1)C(C)C` [Example 547], the EC50 is 0.018 nM in the test on HCV 1b genotype replicon (setting [1]) and < 1 nM in the test on HCV 1a genotype replicon (setting [3]).

For `COC(=O)N[C@H](C(=O)N1CCC[C@H]1c1nc(-c2ccc3nc(-c4ccc5[nH]c([C@@H]6CC7(CC7)CN6C(=O)[C@@H](NC(=O)OC)C(C)C)nc5c4)ncc3c2)c[nH]1)C(C)C` [Example 644], the EC50 in the test on HCV 1b genotype replicon (setting [1]) is 0.045 nM; with HCV 1a genotype replicon (setting [3]), < 1 nM.

As for `COC(=O)N[C@H](C(=O)N1CCC[C@H]1c1ncc(-c2ccc(C#Cc3ccc4nc([C@@H]5C[C@H](C6CC6)CN5C(=O)[C@@H](NC(=O)OC)C(C)C)[nH]c4c3)cc2)[nH]1)C(C)C` [Example 641], the results for the EC50 in the test with HCV 1b genotype replicon (setting [1]) and in the test with HCV 1a genotype replicon (setting [3]) were 0.007 nM and < 1 nM, respectively.

On to `COC(=O)N[C@H](C(=O)N1CC2(CC2)C[C@H]1c1nc(-c2ccc(C#Cc3ccc4[nH]c([C@@H]5C[C@@]6(CCOC6)CN5C(=O)[C@@H](NC(=O)OC)C(C)C)nc4c3)cc2)c[nH]1)C(C)C` [Example 631], for which the results for the EC50 in the test with HCV 1b genotype replicon (setting [1]) and in the test on HCV 1a genotype replicon (setting [3]) were 0.008 nM and < 1 nM, respectively.

On to `COC(=O)N[C@H](C(=O)N1CCC[C@H]1c1nc(-c2ccc(C#Cc3ccc4[nH]c([C@@H]5CC6(CCOCC6)CN5C(=O)[C@@H](NC(=O)OC)C(C)C)nc4c3)cc2)c[nH]1)C(C)C` [Example 568], for which the EC50 in the test with HCV 1b genotype replicon (setting [1]) was 0.009 nM; in the test with HCV 1a genotype replicon (setting [3]), < 1 nM.

On to `COC(=O)N[C@H](C(=O)N1CC2(CC2)C[C@H]1c1ncc(-c2ccc(C#Cc3ccc4nc([C@@H]5C[C@]6(CCCOC6)CN5C(=O)[C@@H](NC(=O)OC)C(C)C)[nH]c4c3)cc2)[nH]1)C(C)C` [Example 639], for which the EC50 is 0.008 nM in the test with HCV 1b genotype replicon (setting [1]) and < 1 nM in the test with HCV 1a genotype replicon (setting [3]).

Regarding `COC(=O)NCCCC[C@H](NC(=O)OC)C(=O)N1CCC[C@H]1c1nc(-c2ccc(C#Cc3ccc4[nH]c([C@@H]5CC6(CC6)CN5C(=O)[C@@H](NC(=O)OC)C(C)C)nc4c3)cc2)c[nH]1` [Example 693], the concentration for a half-maximal effect (EC50) in the test on HCV 1b genotype replicon (setting [4]) and with HCV 1a genotype replicon (setting [3]) was < 1 nM in each case.

By EC50 is commonly meant the concentration giving half of the maximal effect.
